Measurements from PMC13463089, “PA200 modulates immunoproteasome structure and activity” (Nature Communications, 2026).

Experiments:
[1] = target: T1, i20S-PA200 complex (PA200 / PSME4 bound to the immunoproteasome) (Homo sapiens, UniProt Q14997); experiment: fluorogenic peptide assay of […] activity; type: biochemical; details: PA200 21.5 nM preincubated with 70 uM IP6, i20S 1.5 nM; substrates LLVY, ANW, PAL, LRR; pH 7.6, 37 C; activator
T1 construct: recombinant purified human PA200, about 200 kDa, one or two copies per 20S; human i20S commercial (cryo-EM) or purified from HEK293-EBNA (activity); with Proteasome subunit beta type-8; Proteasome subunit beta type-9; Proteasome subunit beta type-10; Proteasome subunit alpha type-6; Proteasome subunit alpha type-2; Proteasome subunit alpha type-4; Proteasome subunit alpha type-7; Proteasome subunit alpha type-5; Proteasome subunit alpha type-1; Proteasome subunit alpha type-3; Proteasome subunit beta type-3; Proteasome subunit beta type-2; Proteasome subunit beta type-1; Proteasome subunit beta type-4
T1 sequence (Q14997 whole entry): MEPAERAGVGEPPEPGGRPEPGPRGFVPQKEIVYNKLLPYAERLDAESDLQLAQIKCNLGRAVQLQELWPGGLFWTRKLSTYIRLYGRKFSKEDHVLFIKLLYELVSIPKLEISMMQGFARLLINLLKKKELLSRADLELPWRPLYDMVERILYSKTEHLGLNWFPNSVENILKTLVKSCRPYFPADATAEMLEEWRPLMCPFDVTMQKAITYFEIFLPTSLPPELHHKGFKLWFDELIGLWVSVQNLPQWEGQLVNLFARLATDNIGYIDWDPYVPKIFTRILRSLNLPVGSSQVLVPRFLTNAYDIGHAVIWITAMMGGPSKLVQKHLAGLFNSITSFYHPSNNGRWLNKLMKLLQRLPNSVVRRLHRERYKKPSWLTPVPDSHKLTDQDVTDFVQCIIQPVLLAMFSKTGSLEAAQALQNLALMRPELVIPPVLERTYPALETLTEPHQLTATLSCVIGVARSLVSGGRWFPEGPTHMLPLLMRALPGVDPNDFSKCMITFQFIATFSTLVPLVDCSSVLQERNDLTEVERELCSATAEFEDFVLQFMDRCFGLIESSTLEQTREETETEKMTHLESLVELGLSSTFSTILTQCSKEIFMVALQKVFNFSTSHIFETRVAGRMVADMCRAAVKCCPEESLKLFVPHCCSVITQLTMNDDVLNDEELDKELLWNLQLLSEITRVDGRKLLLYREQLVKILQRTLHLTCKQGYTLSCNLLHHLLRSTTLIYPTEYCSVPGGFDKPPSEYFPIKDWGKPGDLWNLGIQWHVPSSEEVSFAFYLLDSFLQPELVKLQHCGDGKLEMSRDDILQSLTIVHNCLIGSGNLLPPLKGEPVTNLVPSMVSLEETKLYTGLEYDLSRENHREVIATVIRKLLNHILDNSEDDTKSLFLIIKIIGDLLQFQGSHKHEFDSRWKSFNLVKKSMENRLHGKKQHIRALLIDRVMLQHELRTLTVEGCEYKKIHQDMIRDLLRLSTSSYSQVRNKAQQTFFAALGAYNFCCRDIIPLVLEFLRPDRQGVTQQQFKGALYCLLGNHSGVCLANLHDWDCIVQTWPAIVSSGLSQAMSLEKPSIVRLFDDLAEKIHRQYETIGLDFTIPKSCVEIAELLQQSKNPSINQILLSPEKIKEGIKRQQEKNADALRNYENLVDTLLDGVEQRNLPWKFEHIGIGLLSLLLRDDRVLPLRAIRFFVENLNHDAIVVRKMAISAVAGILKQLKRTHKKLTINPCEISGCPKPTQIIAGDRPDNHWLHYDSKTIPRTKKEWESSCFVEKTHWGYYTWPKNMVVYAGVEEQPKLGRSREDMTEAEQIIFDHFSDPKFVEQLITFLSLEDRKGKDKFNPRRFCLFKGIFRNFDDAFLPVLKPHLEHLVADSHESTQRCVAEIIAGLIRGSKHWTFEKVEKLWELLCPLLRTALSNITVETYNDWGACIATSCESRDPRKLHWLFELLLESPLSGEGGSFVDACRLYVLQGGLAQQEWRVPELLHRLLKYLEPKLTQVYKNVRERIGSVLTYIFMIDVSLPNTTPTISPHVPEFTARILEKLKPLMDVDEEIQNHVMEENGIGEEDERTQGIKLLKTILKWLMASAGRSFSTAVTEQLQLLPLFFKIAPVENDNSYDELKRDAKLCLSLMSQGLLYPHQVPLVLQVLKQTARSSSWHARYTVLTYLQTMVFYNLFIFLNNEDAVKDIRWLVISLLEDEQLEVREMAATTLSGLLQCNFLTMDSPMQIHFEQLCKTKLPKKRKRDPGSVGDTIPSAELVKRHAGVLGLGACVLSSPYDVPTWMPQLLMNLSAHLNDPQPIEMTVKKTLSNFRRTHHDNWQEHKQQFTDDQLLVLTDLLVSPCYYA
T1 sequence (P28062 73-276 partner): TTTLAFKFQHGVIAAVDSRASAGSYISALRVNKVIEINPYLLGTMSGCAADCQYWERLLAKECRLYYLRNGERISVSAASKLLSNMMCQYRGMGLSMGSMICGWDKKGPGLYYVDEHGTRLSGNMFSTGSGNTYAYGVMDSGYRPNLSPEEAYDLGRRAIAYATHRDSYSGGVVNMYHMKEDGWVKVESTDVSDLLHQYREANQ
T1 sequence (P28065 21-219 partner): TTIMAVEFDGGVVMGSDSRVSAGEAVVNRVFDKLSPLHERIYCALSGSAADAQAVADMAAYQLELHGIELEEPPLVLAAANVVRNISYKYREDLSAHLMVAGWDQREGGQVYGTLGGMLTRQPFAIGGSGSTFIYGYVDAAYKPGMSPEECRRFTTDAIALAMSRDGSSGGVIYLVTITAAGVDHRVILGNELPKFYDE
T1 sequence (P40306 40-273 partner): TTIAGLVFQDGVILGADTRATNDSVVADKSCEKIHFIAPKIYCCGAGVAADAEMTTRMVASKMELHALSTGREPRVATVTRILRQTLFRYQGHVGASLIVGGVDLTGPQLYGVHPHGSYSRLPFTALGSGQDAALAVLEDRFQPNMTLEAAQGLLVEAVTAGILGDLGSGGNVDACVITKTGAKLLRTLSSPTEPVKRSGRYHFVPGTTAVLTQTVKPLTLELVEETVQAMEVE

[2] = target: T2, s20S-PA200 complex (PA200 / PSME4 bound to the standard proteasome) (Homo sapiens, UniProt Q14997); experiment: fluorogenic peptide assay of […] activity; type: biochemical; details: PA200 21.5 nM preincubated with 70 uM IP6, s20S 1.5 nM; pH 7.6, 37 C
T2 construct: recombinant purified human PA200 mixed with purified human s20S; with Proteasome subunit beta type-5; Proteasome subunit beta type-6; Proteasome subunit beta type-7; Proteasome subunit alpha type-6; Proteasome subunit alpha type-2; Proteasome subunit alpha type-4; Proteasome subunit alpha type-7; Proteasome subunit alpha type-5; Proteasome subunit alpha type-1; Proteasome subunit alpha type-3; Proteasome subunit beta type-3; Proteasome subunit beta type-2; Proteasome subunit beta type-1; Proteasome subunit beta type-4
T2 sequence (Q14997 whole entry): as the sequence (Q14997 whole entry) above
T2 sequence (P28074 60-263 partner): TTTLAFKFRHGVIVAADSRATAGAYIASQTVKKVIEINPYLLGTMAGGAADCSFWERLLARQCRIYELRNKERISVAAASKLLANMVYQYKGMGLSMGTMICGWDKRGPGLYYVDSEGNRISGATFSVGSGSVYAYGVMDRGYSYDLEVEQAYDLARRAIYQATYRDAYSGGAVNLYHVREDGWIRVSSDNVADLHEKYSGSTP
T2 sequence (P28072 35-239 partner): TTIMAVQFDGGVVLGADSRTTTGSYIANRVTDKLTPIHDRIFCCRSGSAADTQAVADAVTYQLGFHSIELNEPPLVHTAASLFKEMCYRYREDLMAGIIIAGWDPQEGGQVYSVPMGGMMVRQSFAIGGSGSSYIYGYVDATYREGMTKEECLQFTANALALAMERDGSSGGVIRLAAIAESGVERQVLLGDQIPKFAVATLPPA
T2 sequence (Q99436 44-277 partner): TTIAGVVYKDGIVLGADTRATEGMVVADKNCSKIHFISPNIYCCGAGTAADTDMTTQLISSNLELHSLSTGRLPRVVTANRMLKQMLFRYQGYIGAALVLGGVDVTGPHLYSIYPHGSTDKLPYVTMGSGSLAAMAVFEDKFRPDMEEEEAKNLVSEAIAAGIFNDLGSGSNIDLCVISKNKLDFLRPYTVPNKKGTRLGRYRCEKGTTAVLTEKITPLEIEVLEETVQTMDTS

[3] = target: T1, i20S-PA200 complex (PA200 / PSME4 bound to the immunoproteasome); experiment: cryo-EM structure ([…] and […] A); type: binding; details: two IP6 molecules in the two positively charged grooves of PA200; density assigned by analogy to s20S-PA200 structures

## O=P(O)(O)O[C@H]1[C@H](OP(=O)(O)O)[C@@H](OP(=O)(O)O)[C@H](OP(=O)(O)O)[C@@H](OP(=O)(O)O)[C@H]1OP(=O)(O)O [IP6]
[1]
  relative activity: strong increase of the three activities that are specific for the i20S
[2]
  relative activity: Effect of phytic acid (IP6) on PA200-activated i20S (B, dark blue bars) and s20S
[3]
  cryo-EM structure (2.85 and 2.89 A): we assigned these densities to two molecules of IP6
